Key:
U937 cells = test: Cell cycle analysis in multidrug-resistant U937 cells (propidium iodide); format: cell-based; conditions: 18 h, 24 h and 48 h, CAP7.1, etoposide 10^−4 mol/l
Procedure: The cells were incubated for 48 h. After 18 h, 24 h and 48 h of incubation, respectively, cell cycle analysis was performed as follows:
Cells were washed once with CellWash, fixed with fridge-cold 70% Ethanol for 30 min at 4° C. and washed three times. RNA was digested with RNAse A (100 μg/ml in PBS) for 10 min at room temperature. Cells were washed once with CellWash and stained with propidium iodide (50 μg/ml in PBS) for 5 min at room temperature in the dark. Cells were analyzed immediately by flow cytometry using a FACScanto II apparatus.

CES3 = molecular target: T1, CES3 (Homo sapiens, UniProt Q6UWW8); test: Conversion of CAP7.1 to etoposide by CES3 (HPLC); format: in vitro ADME; conditions: 5 μM CAP7.1, sodium phosphate pH 7.4, 37° C.
T1 sequence (Q6UWW8 27-571): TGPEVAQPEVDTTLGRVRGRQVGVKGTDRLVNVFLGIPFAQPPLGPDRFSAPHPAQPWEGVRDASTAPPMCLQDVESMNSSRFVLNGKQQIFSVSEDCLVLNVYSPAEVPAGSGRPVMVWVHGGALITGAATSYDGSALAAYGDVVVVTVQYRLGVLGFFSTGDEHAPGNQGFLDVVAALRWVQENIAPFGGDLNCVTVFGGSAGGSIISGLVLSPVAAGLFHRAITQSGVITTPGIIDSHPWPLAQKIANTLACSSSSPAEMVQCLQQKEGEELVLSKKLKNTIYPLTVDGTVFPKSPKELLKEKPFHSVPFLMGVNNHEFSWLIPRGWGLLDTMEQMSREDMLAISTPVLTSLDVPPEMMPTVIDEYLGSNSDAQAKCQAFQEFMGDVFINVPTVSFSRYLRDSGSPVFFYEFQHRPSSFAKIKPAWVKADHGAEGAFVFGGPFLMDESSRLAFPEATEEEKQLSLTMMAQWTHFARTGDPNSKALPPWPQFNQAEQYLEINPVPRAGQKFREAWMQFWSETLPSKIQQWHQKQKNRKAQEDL
Procedure: (§1) 5 μM CAP7.1 was pre-incubated for 3 min in 999 μl 0.1 mol/l) sodium phosphate (NaH2PO4, Roth, Karlsruhe, Germany) pH 7.4 at 37° C. After that, CES1, CES2 and CES3, respectively, were added. Controls were incubated with 10% foetal calf serum (FCS, positive control) or in buffer (negative control). At different time points, aliquots were subjected to HPLC in order to analyse the formed products.

[1] = Side effects in preclinical and clinical studies; format: in vivo
Half life in mice = conditions: mouse, in vivo; mice with high levels of carboxylesterases
CES1 = molecular target: T2, CES1 (Homo sapiens, UniProt P23141); test: Conversion of CAP7.1 to etoposide by CES1 (HPLC); format: in vitro ADME; conditions: 5 μM CAP7.1, sodium phosphate pH 7.4, 37° C.
T2 sequence (P23141 18-567): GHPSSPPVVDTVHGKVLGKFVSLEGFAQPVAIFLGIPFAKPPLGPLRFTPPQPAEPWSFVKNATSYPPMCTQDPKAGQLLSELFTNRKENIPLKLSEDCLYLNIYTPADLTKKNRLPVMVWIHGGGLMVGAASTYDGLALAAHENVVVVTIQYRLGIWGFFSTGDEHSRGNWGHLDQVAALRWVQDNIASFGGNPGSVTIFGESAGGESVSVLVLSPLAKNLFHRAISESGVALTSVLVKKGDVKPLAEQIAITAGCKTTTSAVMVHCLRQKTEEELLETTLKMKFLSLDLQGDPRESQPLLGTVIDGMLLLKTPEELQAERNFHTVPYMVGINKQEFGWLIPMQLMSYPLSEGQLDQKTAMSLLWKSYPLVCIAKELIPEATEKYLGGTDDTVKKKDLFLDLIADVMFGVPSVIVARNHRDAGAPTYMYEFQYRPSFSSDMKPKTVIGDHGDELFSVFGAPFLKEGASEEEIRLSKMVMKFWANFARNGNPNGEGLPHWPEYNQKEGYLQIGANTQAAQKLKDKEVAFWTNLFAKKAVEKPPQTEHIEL
Procedure: as §1

tumour cells = conditions: cited from earlier work
[2] = Cardiovascular telemetry study; format: in vivo, cynomolgus monkeys; conditions: conscious monkeys, single intravenous 30-minute infusion
From the text: The objective of this study was to evaluate the potential modifications of cardiovascular function and cardiac electrophysiology by CAP7.1. The intravenous route was selected, as it is the intended mode of administration in human therapeutic use.
A total of four cynomolgus monkeys (two males and two females) were implanted with telemetric devices and allocated to a single group. They received a single dose of the vehicle (Cremophor/ethanol/NaCl) or CAP7.1, by intravenous 30-minute infusion. Cardiovascular parameters were monitored up to 24 hours following single infusion. The cardiovascular parameters evaluated in this study included heart rate, diastolic, systolic and mean arterial pressure, and duration of the PQ, QRS and QT intervals.

[3] = Time course of apoptosis induction; format: cell-based
Half life in humans = conditions: human, in vivo
topoisomerase II β = test: Topoisomerase II beta mRNA expression in U937 cells (PCR); format: cell-based; conditions: 10^4 mol/l, 24 h
Procedure: (§2) One of the controls involved the treatment of the cells with 0.05% (1 μl) DMSO. Untreated cells are also shown as a control.
(§3) After an incubation time of 24 h, expression was analysed by determining mRNA levels by real-time PCR. In the respective lanes of FIG. 2, the bands for topoisomerase II α (322 bp), topoisomerase II β (304 bp) and the GAPDH control (358 bp) are shown. In the H2O control lane, showing the results of the H2O control sample, no bands were observed.

[4] = system: tumours that were metastatic and/or that reduced the function of at least one organ; test: Phase I/IIa safety/efficacy study in patients with metastatic and/or organ-function-reducing tumours
Procedure: Nine heavily pre-treated patients were recruited to a combined Phase I/IIa safety/efficacy study. The patients had tumours that were metastatic and/or that reduced the function of at least one organ.
In all patients, the tumours were clinically assessed and the history of their disease was recorded. Tumour markers were determined.
A cycle of treatment consisted of CAP7.1 administration by infusion on 5 consecutive days, followed by an intermittent period of 16 days in which no CAP7.1 was administered. […] The first cohort (patients 1-3, 8 cycles in total) received CAP7.1 at a daily dose of 45 mg/m^2, the second cohort (patients 4-6, 9 cycles in total) at a daily dose of 90 mg/m^2 and the third cohort (patients 7-9) at a daily dose of 150 mg/m^2.

topoisomerase II α = test: Topoisomerase II alpha mRNA expression in U937 cells (PCR); format: cell-based; conditions: 24 h
Procedure: as §2, §3

Half life in primates = format: in vivo
[5] = Stability in sodium phosphate buffer (negative control); format: physicochemical; conditions: sodium phosphate pH 7.4, 37° C.
Procedure: as §1

With COc1cc([C@@H]2c3cc4c(cc3C(OC3OC5COC(C)OC5C(O)C3O)C3COC(=O)[C@@H]32)OCO4)cc(OC)c1OC(=O)OCC(O)CO (some centres unmarked) [CAP7.1] the “fraction of cells in G2 phase with increasing incubation times” value (U937 cells) was “increase”, the “cleavage of CAP7.1 to etoposide by CES3” value (CES3) was “substantially no cleavage” and the “side effects compared with etoposide” value [1] was “fewer side effects than etoposide”. For the same compound, the half-life (Half life in mice) was under 5 min, the “cleavage of CAP7.1 to etoposide by CES1” value (CES1) was “efficiently cleaves” and the “potency relative to etoposide, e.g. cytotoxicity on tumour cells” value (tumour cells) was “up to 1000 times”. The arrhythmias [2] was “No arrhythmias”, the “modifications in the cardiac electrophysiological parameters” value ([2]; up to 24 hours) was “no relevant modifications” and the “time after which apoptosis is complete” value [3] was 120 h. The half-life (Half life in humans) was 15 to 30 min, the “expression of topoisomerase II β (mRNA)” value (topoisomerase II β) was “significant decrease” and the “tolerability of the therapy” value ([4]; all nine patients, 45, 90 or 150 mg/m^2 daily on 5 consecutive days per cycle) was “tolerated the therapy well without major adverse reactions”. The “clinical response after the second cycle of treatment” value ([4]; patients 1, 3, 4, 6, 8 and 9 of nine) was “stagnation of the disease”, the “total dose per cycle tolerated without toxicity” value ([4]; patients 1 to 6) was 450 mg/m^2 and the “expression of topoisomerase II α (mRNA)” value (topoisomerase II α) was “significant decrease”. The “half life compared with mice” value (Half life in primates) was “longer” and the “stability in buffer (negative control)” value [5] was “stable”.

From patent US9889147B2 (CELLACT PHARMA GMBH, priority 2010, dated 2018)
